Assay results as given in patent US20090247559A1 (Exelixis, Inc., priority 2007, published 2009).
Where two headings read alike, the source gives them in different places.

What was measured:
[1] = target: PIM (PIM-1, PIM-2, and/or PIM-3); assay: PIM-1, PIM-2 and PIM-3 inhibition, biochemical chemiluminescence assays (Kinase Glo, IC50 determination); conditions: Table 1 activity class; PIM refers to PIM-1, PIM-2, and/or PIM-3; read-out: PIM IC50 (Activity B)
[2] = target: CDC7 (Homo sapiens, UniProt O00311); assay: CDC7 inhibition, biochemical chemiluminescence assay (Kinase Glo, IC50 determination)
CDC7, sequence (O00311 whole entry): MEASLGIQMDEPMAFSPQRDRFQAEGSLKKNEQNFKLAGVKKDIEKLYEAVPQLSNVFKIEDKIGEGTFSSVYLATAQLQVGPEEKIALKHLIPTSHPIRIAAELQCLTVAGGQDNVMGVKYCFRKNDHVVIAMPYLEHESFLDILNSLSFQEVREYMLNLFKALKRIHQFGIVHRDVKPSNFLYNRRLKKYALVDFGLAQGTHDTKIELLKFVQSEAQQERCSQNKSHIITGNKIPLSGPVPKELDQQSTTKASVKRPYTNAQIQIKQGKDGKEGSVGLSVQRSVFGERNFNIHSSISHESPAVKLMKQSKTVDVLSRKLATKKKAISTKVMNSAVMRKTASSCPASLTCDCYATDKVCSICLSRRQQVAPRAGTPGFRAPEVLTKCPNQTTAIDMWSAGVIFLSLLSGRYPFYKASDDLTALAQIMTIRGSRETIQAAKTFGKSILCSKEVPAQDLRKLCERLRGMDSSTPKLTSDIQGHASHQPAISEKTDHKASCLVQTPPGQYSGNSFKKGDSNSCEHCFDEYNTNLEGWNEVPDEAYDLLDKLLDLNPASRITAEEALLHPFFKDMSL
CDC7, sequence (Q9UBU7 whole entry partner): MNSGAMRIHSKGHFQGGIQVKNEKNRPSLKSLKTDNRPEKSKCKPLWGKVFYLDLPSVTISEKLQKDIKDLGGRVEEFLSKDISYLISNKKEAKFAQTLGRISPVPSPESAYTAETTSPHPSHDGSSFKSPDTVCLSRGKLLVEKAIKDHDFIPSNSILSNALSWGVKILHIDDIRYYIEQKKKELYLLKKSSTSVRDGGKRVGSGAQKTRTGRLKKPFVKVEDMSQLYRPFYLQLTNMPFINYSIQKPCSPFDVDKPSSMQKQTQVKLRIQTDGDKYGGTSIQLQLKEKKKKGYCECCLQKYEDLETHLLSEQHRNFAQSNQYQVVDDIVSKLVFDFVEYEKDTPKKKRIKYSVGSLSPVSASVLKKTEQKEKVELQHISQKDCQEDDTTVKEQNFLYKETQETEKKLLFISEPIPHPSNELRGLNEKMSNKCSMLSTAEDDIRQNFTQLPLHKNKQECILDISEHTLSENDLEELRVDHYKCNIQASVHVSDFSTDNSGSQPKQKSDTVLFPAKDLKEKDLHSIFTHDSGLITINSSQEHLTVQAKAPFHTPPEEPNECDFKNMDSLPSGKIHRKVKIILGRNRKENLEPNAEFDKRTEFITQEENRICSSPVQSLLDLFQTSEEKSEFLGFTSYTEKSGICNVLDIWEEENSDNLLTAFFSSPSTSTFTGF
Outline: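 CDC7 enzyme preincubated with compound 10 min at ambient temperature, then ATP mix in Tris Base added; reaction 90 min at 24-27 °C. Remaining ATP quantified by Kinase Glo luminescence to give IC50.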

[3] = target: CK2 (Homo sapiens, UniProt P68400); assay: CK2 inhibition, biochemical chemiluminescence holoenzyme assay (Kinase Glo, IC50 determination); conditions: Table 1 activity class; symbol given only if active; read-out: CK2 IC50 (Activity C)
CK2, sequence (P68400 whole entry): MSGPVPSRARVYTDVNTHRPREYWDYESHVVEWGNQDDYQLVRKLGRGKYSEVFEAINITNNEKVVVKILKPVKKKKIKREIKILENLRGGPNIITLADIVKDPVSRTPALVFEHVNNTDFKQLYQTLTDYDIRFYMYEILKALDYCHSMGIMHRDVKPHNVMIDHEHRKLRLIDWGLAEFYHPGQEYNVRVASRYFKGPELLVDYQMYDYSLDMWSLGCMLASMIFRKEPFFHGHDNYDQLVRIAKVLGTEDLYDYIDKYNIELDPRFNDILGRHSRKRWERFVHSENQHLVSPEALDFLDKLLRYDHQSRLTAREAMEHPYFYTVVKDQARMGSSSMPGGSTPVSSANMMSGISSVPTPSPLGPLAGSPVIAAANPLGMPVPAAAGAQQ
CK2, sequence (P67870 whole entry partner): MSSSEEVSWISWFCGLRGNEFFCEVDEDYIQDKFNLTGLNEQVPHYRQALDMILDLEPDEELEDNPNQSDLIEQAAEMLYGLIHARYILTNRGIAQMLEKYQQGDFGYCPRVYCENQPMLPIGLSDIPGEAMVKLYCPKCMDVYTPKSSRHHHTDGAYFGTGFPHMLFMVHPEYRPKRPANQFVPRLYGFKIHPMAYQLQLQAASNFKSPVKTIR
Outline: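 Holoenzyme CK2 assay; compounds pre-incubated with substrate and enzyme, then reacted 150 min at 24-27° C. Remaining ATP measured as luminescence with Kinase Glo, and IC50 derived from the signal.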

[4] = Table 1 activity class, symbol given only if active, read-out: CDC7 IC50 (Activity A)
[5] = compounds in Table 1, read-out: CDC7 IC50 value

Row | IC50 [1] | IC50 [2, 4] | IC50 [2, 5] | IC50 [3] | Structure (SMILES)
1 | < 10 µM | < 10 µM | < 0.1 µM | < 10 µM | O=c1[nH]c(CN2CC[C@H](F)C2)nc2c1oc1ccc(Br)cc12 [Compound 308, 8-bromo-2-{[(3S)-3-fluoropyrrolidin-1-yl]methyl}[1]benzofuro[3,2-d]pyrimidin-4(3H)-one]
2 | < 10 µM | < 10 µM | – | < 10 µM | O=c1[nH]c(CN2CCC3(CCNCC3)CC2)nc2c1oc1ccc(Br)cc12 [Compound 311, 8-bromo-2-(3,9-diazaspiro[5.5]undec-3-ylmethyl)[1]benzofuro[3,2-d]pyrimidin-4(3H)-one]
3 | < 10 µM | < 10 µM | – | < 10 µM | Cc1cnc(C(=O)Nc2ccc(-c3nc4c(oc5ccc(Br)cc54)c(=O)[nH]3)c(Cl)c2)cn1 [Compound 312, N-[4-(8-bromo-4-oxo-3,4-dihydro[1]benzofuro[3,2-d]pyrimidin-2-yl)-3-chlorophenyl]-5-methylpyrazine-2-carboxamide]
4 | < 10 µM | < 10 µM | – | < 10 µM | O=C(Nc1ccc(-c2nc3c(oc4ccc(Br)cc43)c(=O)[nH]2)c(Cl)c1)C1CCOC1 (stereo not shown) [Compound 313, N-[4-(8-bromo-4-oxo-3,4-dihydro[1]benzofuro[3,2-d]pyrimidin-2-yl)-3-chlorophenyl]tetrahydrofuran-3-carboxamide]
5 | < 10 µM | < 10 µM | – | < 10 µM | O=c1[nH]c(C[C@H]2CCCNC2)nc2c1oc1ccc(Br)cc12 [Compound 315, 8-bromo-2-[(3R)-piperidin-3-ylmethyl][1]benzofuro[3,2-d]pyrimidin-4(3H)-one]
6 | < 10 µM | < 10 µM | < 0.1 µM | < 10 µM | O=c1[nH]c(CN2CCCC(F)C2)nc2c1oc1ccc(Br)cc12 (stereo not shown) [Compound 317, 8-bromo-2-[(3-fluoropiperidin-1-yl)methyl][1]benzofuro[3,2-d]pyrimidin-4(3H)-one]
7 | < 10 µM | < 10 µM | – | < 10 µM | COCC(=O)Nc1ccc(-c2nc3c(oc4ccc(Br)cc43)c(=O)[nH]2)c(Cl)c1 [Compound 319, N-[4-(8-bromo-4-oxo-3,4-dihydro[1]benzofuro[3,2-d]pyrimidin-2-yl)-3-chlorophenyl]-2-(methyloxy)acetamide]
8 | < 10 µM | < 10 µM | – | < 10 µM | COC(=O)Nc1ccc(-c2nc3c(oc4ccc(Br)cc43)c(=O)[nH]2)c(Cl)c1 [Compound 320, methyl [4-(8-bromo-4-oxo-3,4-dihydro[1]benzofuro[3,2-d]pyrimidin-2-yl)-3-chlorophenyl]carbamate]
9 | < 10 µM | < 10 µM | – | < 10 µM | O=C(Nc1ccc(-c2nc3c(oc4ccc(Br)cc43)c(=O)[nH]2)c(Cl)c1)c1ccco1 [Compound 321, N-[4-(8-bromo-4-oxo-3,4-dihydro[1]benzofuro[3,2-d]pyrimidin-2-yl)-3-chlorophenyl]furan-2-carboxamide]
10 | < 10 µM | < 10 µM | – | < 10 µM | O=C(Cc1cccnc1)Nc1ccc(-c2nc3c(oc4ccc(Br)cc43)c(=O)[nH]2)c(Cl)c1 [Compound 322, N-[4-(8-bromo-4-oxo-3,4-dihydro[1]benzofuro[3,2-d]pyrimidin-2-yl)-3-chlorophenyl]-2-pyridin-3-ylacetamide]
11 | < 10 µM | < 10 µM | – | < 10 µM | O=C(Nc1ccc(-c2nc3c(oc4ccc(Br)cc43)c(=O)[nH]2)c(Cl)c1)c1cnccn1 [Compound 323, N-[4-(8-bromo-4-oxo-3,4-dihydro[1]benzofuro[3,2-d]pyrimidin-2-yl)-3-chlorophenyl]pyrazine-2-carboxamide]
12 | < 10 µM | < 10 µM | – | < 10 µM | O=C(Nc1ccc(-c2nc3c(oc4ccc(Br)cc43)c(=O)[nH]2)c(Cl)c1)c1ccno1 [Compound 324, N-[4-(8-bromo-4-oxo-3,4-dihydro[1]benzofuro[3,2-d]pyrimidin-2-yl)-3-chlorophenyl]isoxazole-5-carboxamide]
13 | < 10 µM | < 10 µM | – | < 10 µM | O=C(Nc1ccc(-c2nc3c(oc4ccc(Br)cc43)c(=O)[nH]2)c(Cl)c1)c1cncnc1 [Compound 328, N-[4-(8-bromo-4-oxo-3,4-dihydro[1]benzofuro[3,2-d]pyrimidin-2-yl)-3-chlorophenyl]pyrimidine-5-carboxamide]
14 | < 10 µM | < 10 µM | < 0.1 µM | < 10 µM | O=c1[nH]c(CN2CC=CC2)nc2c1oc1ccc(Br)cc12 [Compound 331, 8-bromo-2-(3-pyrrolin-1-ylmethyl)[1]benzofuro[3,2-d]pyrimidin-4(3H)-one]
15 | < 10 µM | < 10 µM | < 0.1 µM | < 10 µM | O=c1[nH]c(CN2C[C@H](O)[C@@H](O)C2)nc2c1oc1ccc(Br)cc12 [Compound 333, 8-bromo-2-(((3 S,4S)-3,4-dihydroxypyrrolidin-1-yl)methyl)benzofuro[3,2-d]pyrimidin-4(3H)-one]
16 | < 10 µM | < 10 µM | – | < 10 µM | COc1ccc(C(=O)Nc2ccc(-c3nc4c(oc5ccc(Br)cc54)c(=O)[nH]3)c(Cl)c2)cn1 [Compound 343, N-[4-(8-bromo-4-oxo-3,4-dihydro[1]benzofuro[3,2-d]pyrimidin-2-yl)-3-chlorophenyl]-6-(methyloxy)pyridine-3-carboxamide]
17 | < 10 µM | < 10 µM | < 0.1 µM | < 10 µM | O=c1[nH]c(CN2CCC[C@@H]2CO)nc2c1oc1ccc(Br)cc12 [Compound 344, 8-bromo-2-{[(2R)-2-(hydroxymethyl)pyrrolidin-1-yl]methyl}[1]benzofuro[3,2-d]pyrimidin-4(3H)-one]
18 | < 10 µM | < 10 µM | < 0.1 µM | < 10 µM | CC1(O)CCN(Cc2nc3c(oc4ccc(Br)cc43)c(=O)[nH]2)C1 (stereo not shown) [Compound 346, 8-bromo-2-[(3-hydroxy-3-methylpyrrolidin-1-yl)methyl][1]benzofuro[3,2-d]pyrimidin-4(3H)-one]
19 | < 10 µM | < 10 µM | – | < 10 µM | O=C(O)c1ccc(C(=O)Nc2ccc(-c3nc4c(oc5ccc(Br)cc54)c(=O)[nH]3)c(Cl)c2)nc1 [Compound 347, 6-({[4-(8-bromo-4-oxo-3,4-dihydro[1]benzofuro[3,2-d]pyrimidin-2-yl)-3-chlorophenyl]amino}carbonyl)pyridine-3-carboxylic acid]
20 | < 10 µM | < 10 µM | < 0.1 µM | < 10 µM | O=c1[nH]c(CN2C[C@@H](O)[C@@H](O)C2)nc2c1oc1ccc(Br)cc12 [Compound 348, 8-bromo-2-{[cis-3,4-dihydroxypyrrolidin-1-yl]methyl}[1]benzofuro[3,2-d]pyrimidin-4(3H)-one]
21 | < 10 µM | < 10 µM | – | < 10 µM | NCc1ccc(-c2nc3c(oc4ccc(Br)cc43)c(=O)[nH]2)cc1 [Compound 349, 2-[4-(Aminomethyl)phenyl]-8-bromo[1]benzofuro[3,2-d]pyrimidin-4(3H)-one]
22 | < 10 µM | < 10 µM | – | < 10 µM | CN(C)Cc1cccc(-c2nc3c(oc4ccc(Br)cc43)c(=O)[nH]2)c1 [Compound 353, 8-Bromo-2-{3-[(dimethylamino)methyl]phenyl}[1]benzofuro[3,2-d]pyrimidin-4(3H)-one]
